Test results taken from patent US20170266147A1, “METHODS OF INCREASING LATENCY OF ANESTHETIC INDUCTION USING KETONE SUPPLEMENTATION” (priority 2016, published 2017).

Columns and labels:
[1] = system: glucose transporter type 1-deficiency (G1D) syndrome mouse model; assay: Time until anesthetic induction (isoflurane) in G1D mice; format: in vivo; details: for time required before anesthetic induction: relative to control mice fed a standard diet, p=0.0003 (KD), p=0.0136 (KS), p=0.0003 (KE), FIG. 4
Experimental: (§1) Animals were kept in groups of 2-5 mice under standard laboratory conditions (12 h:12 h light-dark cycle) in climate-controlled rooms at 22.0±2.0° C. Animal treatment and measuring procedures were performed in accordance with the University of South Florida Institutional Animal Care and Use Committee (IACUC) guidelines (Protocol#00000457). All efforts were made to reduce the number of animals used. The rodents were put under anesthesia once a week to perform blood draws.
(§2) All data are presented as the mean±standard error of the mean (SEM). The effects of compositions comprising ketone supplements on latency to anesthetic induction, as well as on blood βHB levels, were compared to control and/or baseline levels. Data analysis was performed using GRAPHPAD PRISM v6.0a. Results were considered significant when *p<0.05, **p<0.005, ***p<0.0005. Significance was determined by unpaired t-test.
G1D mice between 3-5 months old were chronically fed a standard rodent chow diet (SD), ketogenic diet (KD) (Table 1), standard rodent chow diet mixed with 20% ketone salt (βHB mineral salt) supplementation (SD+KS), or standard diet mixed with 20% ketone ester (1,3 butanediol-acetoacetate diester) supplementation (SD+KE) for 10 weeks. After 10 weeks, anesthesia was induced in an anesthesia chamber with isoflurane gas mixed with air, and the time until anesthetic induction was measured by a blinded observer. Ketone body levels in the blood were measured immediately after induction of anesthesia with a PRECISION XTRA® blood glucose and ketone monitoring kit.

[2] = Blood levels of βHB after anesthetic induction in Sprague-Dawley rats; format: in vivo, rat; details: 7 days, relative to baseline levels, p=0.0001 (ketone diet), p=2.21E−05 (ketone salt), FIG. 2
Experimental: as §2, with “PRISM®” for “PRISM”
(§3) Sprague-Dawley rats were fed a standard diet, a ketone diet, or a standard diet supplemented with an oral gavage of the ketone salt βHB mineral salt for 7 days. After 7 days, anesthesia was induced in an anesthesia chamber with isoflurane gas mixed with air, and the time until anesthetic induction was measured by a blinded observer.

[3] = system: Sprague-Dawley rats; assay: Time until anesthetic induction (isoflurane) in Sprague-Dawley rats; format: in vivo, rat; details: 7 days feeding/oral gavage, relative to standard diet fed controls, p=1.32E−6 (ketone diet), p=0.336 (ketone salt), FIG. 1
Experimental: as §1, with “pairs” for “groups”, “2 rats” for “2-5 mice”, “(Protocol#00001749).” for “(Protocol#00000457).”, “used.” for “used. The rodents were put under anesthesia once a week to perform blood draws.”
as §2, with “PRISM®” for “PRISM”
as §3

Compound | time required before anesthetic induction ([1]; 10 weeks) | number of seconds required before anesthetic induction ([1]; chronic 10 weeks, 20% in standard diet, relative to baseline levels, p=0.0035, FIG. 3) | delay in anesthetic induction normalized to body weight ([1]; 10 weeks, relative to animals fed a standard diet, p=0.0048 (KD), p=0.0338 (KS), FIG. 5) | blood levels of βHB after anesthetic induction [2] | number of seconds required before anesthetic induction [3]
CC(=O)CC(=O)OCCC(C)OC(=O)CC(C)=O (stereo not drawn) [ketone ester, 1,3 butanediol-acetoacetate diester] | significant increases | significant increase |  |  | 
βHB mineral salt [ketone salt] | significant increases |  | remained significant | significant increase | significant increase
